Source: EP2119434A1, “Use of heterosidic flavonoid derivatives for therapy of stem cell cancers” (INSTITUT NATIONAL DE LA SANTE ET DE LA RECHERCHE MEDICALE …, priority 2008, dated 2009)

Tested on: U937
Experiment: Adhesion and cytotoxic assay (CAM-DR protocol, fibronectin), cell viability
Format: cell-based
Conditions: in vitro, adherent U937 (not shown)
From the text: Fresh AML cells were obtained from bone marrow of patients upon informed consent, using Ficoll-Hypaque density-gradient centrifugation. […] For in vitro experiments, blasts were resuspended in IMDM. All patients were diagnosed according to WHO classification at the Hematology Department of Toulouse University Hospital (France). Normal bone marrow CD34+ and CD34- hematopoietic cells were harvested from healthy volunteers upon informed consent and obtained after positive selection of CD34-expressing cells by the means of immunomagnetic separation column (Miltenyi Biotech, Bergisch Gladbach, Germany). Fresh blood samples were collected from healthy adult donors and PBMC (Peripheral Blood Mononuclear Cells) were prepared on a Ficoll-Paque density gradient by centrifugation (800 g, 30 min at room temperature).
Adhesion assays were performed in 96-well plates coated overnight at 4°C with 40 µg/mL of human fibronectin (Roche Molecular Biochemicals, Mannheim, Germany) in a final volume of 50 µL in PBS. Each well was blocked with 1% fatty acid-free BSA in PBS, 1 h at room temperature and washed with PBS before seeding the cells. Cells were diluted at 3x10^5/mL overnight and then were serum starved for 1 h at 1x10^6/mL, incubated or not with plant extract/fraction and purified alkaloid or flavonoid compounds. Control assays were treated with corresponding solvents (water, water/ethanol, DMSO) at a 1/100 dilution. Cells were then allowed to adhere on fibronectin (10^5 cells/well) for 1 h at 37°C or maintained in suspension. In some experiments, both cells in suspension and adherent were treated with 0.5 µM daunorubicin (DNR) (Laboratoire Roger Bellon, Neuilly-sur-Seine, France) for 1 h at 37°C. At the end of the incubation period, cells were washed and incubated in serum containing medium for 24 h at 37°C. Cell viability was then quantified by methyl thiazolyl tetrazolium (MTT) assay (Sigma) or by the Annexin V-FITC detection kit from BD PharMingen. Experiments were performed in triplicate and results were evaluated as the percentage of surviving cells compared to the control group.
Aqueous extracts were prepared from dried H. scoparia leaves and serial dilutions were assayed for cytotoxicity over leukemic cells either in suspension or in adhesion following CAM-DR protocol.

Row | Molecule | specific proapoptotic effect on adherent U937 cells
1 | NCC(O)c1ccc(O)cc1 (stereo not shown) [norsynephrine] | none of these compounds displayed a specific proapoptotic effect
2 | COc1cc(O)c2c(=O)c(O)c(-c3ccc(O)c(O)c3)oc2c1 [rhamnetin] | none of these compounds displayed a specific proapoptotic effect
3 | NCCc1c[nH]c2ccccc12 [tryptamine] | none of these compounds displayed a specific proapoptotic effect
4 | N-methylisosalsoline | none of these compounds displayed a specific proapoptotic effect
